The results in this text go back to US20100173900A1, “Strobilurins for Increasing the Resistance of Plants to Abiotic Stress” (BASF SE, priority 2008, published 2010).

For assay [1], the system named is corn plants. The experiment in a line: Corn behavior under freeze conditions (dead plants). The following applies: seed treatment 5 g a.s./100 kg seed, 3 h at −5 ° C. ten or eleven days after sowing, counted one day after freeze exposure. Type of assay: in vivo. Here is the method:
Exposure times and temperatures were selected to show sufficient damage to the plants so that treatment differences could be observed.
Corn seeds were treated with pyraclostrobin (5 g of active substance per 100 kg seed) or with azoxystrobin (5 g of active substance per 100 kg seed). The treatment was effected by means of a HEGE 11 seed treatment apparatus. One day after the treatment, the seeds were sown into pots with sandy loam soil. One part of the corn plants was exposed for 3 h to −5 ° C. ten days after sowing, and the other plants eleven days after sowing. In each case, the number of dead plants was counted one day after the freeze exposure. The results are compiled as mean percentage values (relative to 100% of living plants before exposure to freezing temperatures) in table 3 below.

In another assay the test system is cotton plants. The experiment in a line: Cotton behavior under freeze conditions (dead plants). The assay is classed as in vivo. The following applies: 4 h at −5° C. in BBCH growth stage 10, counted three days after freeze exposure. Here is the method:
Cotton seeds were treated either with pyraclostrobin (20 g of active substance per 100 kg seed) or with azoxystrobin (19 g of active substance per 100 kg seed). The treatment was effected by means of a HEGE 11 seed treatment apparatus. After the treatment, the seeds were sown into pots. When the cotton plants were in the BBCH growth stage 10, they were exposed for 4 h to −5° C. Three days after the freeze exposure, the number of dead plants was counted. The results are compiled as mean percentage values (relative to 100% of living plants before exposure to freezing temperatures) in table 8 below.

Assay [2] relates to corn plants. Put plainly: Emergence behavior of corn after seed treatment, cold and variable temperatures. Type of assay: in vivo. The following applies: seed treatment 5 g a.s./100 kg seed, 7 days at 10° C., 4 days at 24° C., then 10° C. The method, then:
(§1) The emergence behavior of corn plants the seeds of which had been treated with pyraclostrobin and which were exposed after sowing to cold and variable temperatures was studied following the guidelines for germination testing according to the Association of Official Seed Analysts (AOSA, 2005). For this purpose, corn seeds were treated with pyraclostrobin (5 g active substance per 100 kg seed). The treatment was effected by means of a HEGE 11 seed treatment apparatus. After the treatment, the seeds were sown into sand trays (2×100 seeds per tray). The sand trays were placed in an incubator and submitted to following temperature regimen: 7 days at 10° C.-4 days at 24° C.-then 10 ° C. 9, 10 and 29 days after sowing (=DAP=days after planting), the number of seeds which had given rise to plants was counted. The results are compiled as mean values in table 1. A value of 100% means that all sown seeds have given rise to plants.

Assay [3] relates to corn plants. The experiment in a line: Plant height (stem length) and root length of corn, cold and variable temperatures. Type of assay: in vivo. The following applies: seed treatment 5 g a.s./100 kg seed, cold/variable temperature regimen of example 1, 23 days after sowing. Here is the method: as §1
23 days after sowing (see example 1) the stem length (=length from the soil line to the meristem) and the root length of the plants was measured. The results are compiled as mean values in table 2 below.

Assay [4] relates to sugar beet plants. The experiment in a line: Emergence behavior of sugar beet at cold temperature. The assay is classed as in vivo. The following applies: seed treatment 30 g a.s./100 kg seed, kept at 10° C. Here is the method:
The emergence behavior of sugar beet plants the seeds of which had been treated with pyraclostrobin and which were exposed after sowing to cold temperatures was studied following the guidelines for germination testing according to the Association of Official Seed Analysts (AOSA, 2005). For this purpose, sugar beet seeds were treated with pyraclostrobin (30 g active substance per 100 kg seed). The treatment was effected by means of a HEGE 11 seed treatment apparatus. After the treatment, the seeds were sown into pots with a sandy loam soil/sand mixture (2:1 v/v; 2 seeds per pot). The pots were placed in an incubator and kept at 10° C. 13, 15, 16, 17 and 20 days after sowing (=DAP=days after planting), the number of seeds which had given rise to plants was counted. The results are compiled as mean values in table 4. A value of 100% means that all sown seeds have given rise to plants.

The test system of assay [5] is sugar beet plants. Put plainly: Sugar beet behavior under freeze conditions (dead plants). The note with it: seed treatment 30 g a.s./100 kg seed. The assay is classed as in vivo. Here is the method:
Sugar beet seeds were treated with pyraclostrobin (30 g of active substance per 100 kg seed). The treatment was effected by means of a HEGE 11 seed treatment apparatus. After the treatment, the seeds were sown into pots with a sandy loam soil/sand mixture (2:1 v/v; 2 seeds per pot). One part of the sugar beet plants was exposed for 3 h to −5° C. when they were in the BBCH growth stage 10, and the other plants when they were in the BBCH growth stage 11. In each case, the number of dead plants was counted three days after the freeze exposure. The results are compiled as mean percentage values (relative to 100% of living plants before exposure to freezing temperatures) in table 5 below.

Another assay relates to soybean plants. Put plainly: Soybean behavior under freeze conditions (dead plants). The following applies: seed treatment 5 g a.s./100 kg seed, 3.5 h at −7° C. in BBCH growth stage 9, counted three days after freeze exposure. The assay is classed as in vivo. The method, then: Soybean seeds were treated with pyraclostrobin (5 g of active substance per 100 kg seed). The treatment was effected by means of a HEGE 11 seed treatment apparatus. After the treatment, the seeds were sown into pots. When the soybean plants were in the BBCH growth stage 9, they were exposed for 3.5 h to −7° C. Three days after the freeze exposure, the number of dead plants was counted. The results are compiled as mean percentage values (relative to 100% of living plants before exposure to freezing temperatures) in table 6 below.

The test system of the next assay is spring wheat plants. The experiment in a line: Spring wheat behavior under freeze conditions (dead plants). Type of assay: in vivo. The following applies: seed treatment 5 g a.s./100 kg seed, 2 h at −10° C. in BBCH growth stage 11, counted three days after freeze exposure. Here is the method: Spring wheat seeds were treated with pyraclostrobin (5 g of active substance per 100 kg seed). The treatment was effected by means of a HEGE 11 seed treatment apparatus. After the treatment, the seeds were sown into pots. When the spring wheat plants were in the BBCH growth stage 11, they were exposed for 2 h to −10° C. Three days after the freeze exposure, the number of dead plants was counted. The results are compiled as mean percentage values (relative to 100% of living plants before exposure to freezing temperatures) in table 7 below.

The next assay relates to canola plants. Put plainly: Canola behavior under freeze conditions (dead plants). Type of assay: in vivo, canola (oilseed rape). The following applies: seed treatment 10 g a.s./100 kg seed, 1 h at −10° C. in BBCH growth stage 10, counted three days after freeze exposure. Here is the method: Canola (oilseed rape) seeds were treated either with pyraclostrobin (10 g of active substance per 100 kg seed) or with trifloxystrobin (10 g of active substance per 100 kg seed). The treatment was effected by means of a HEGE 11 seed treatment apparatus. After the treatment, the seeds were sown into pots. When the canola plants were in the BBCH growth stage 10, they were exposed for 1 h to −10° C. Three days after the freeze exposure, the number of dead plants was counted. The results are compiled as mean percentage values (relative to 100% of living plants before exposure to freezing temperatures) in table 9 below.

The subject of assay [6] is corn plants. Put plainly: Corn field trial, Burrus Seed Farms. Type of assay: in vivo. The note with it: 5 g a.s./100 kg seed in addition to Maxim XL and Apron XL, 35 DAP. The method, then: For avoiding fungal stress which could give misleading test results especially under cold temperature, all corn seeds were treated with Maxim XL (fludioxonil; 3.5 g of active substance per 100 kg seed) and Apron XL (mefenoxam; 1 g of active substance per 100 kg seed). A part of the seeds was additionally treated with pyraclostrobin (5 g of active substance per 100 kg seed). The treatment was effected by means of a HEGE 11 seed treatment apparatus. On Sep. 26, 2007, the seeds were sown in Burrus Seed Farms, Illinois, USA. 35 days after sowing (=DAP; days after planting), the number of intact, injured and dead plants was assessed. The results are compiled as mean percentage values (relative to total number of plants=100%) in table 10 below.

Assay [7] deals with corn plants. Put plainly: Corn field trial under frost conditions, Beaver Crossing. Type of assay: in vivo. The following applies: 5 g a.s./100 kg seed in addition to Maxim XL and Apron XL. The method, then:
For avoiding fungal stress which could give misleading test results especially under cold temperature, all corn seeds were treated with Maxim XL (fludioxonil; 3.5 g of active substance per 100 kg seed) and Apron XL (mefenoxam; 1 g of active substance per 100 kg seed). A part of the seeds was additionally treated with pyraclostrobin (5 g of active substance per 100 kg seed). The treatment was effected by means of a HEGE 11 seed treatment apparatus. The seeds were sown every 5 days starting from Sep. 6, 2007 in 1.75″ deep on clean tilled soil in Beaver Crossing, NE, USA. Frost occurred on Oct. 22/23, 2007 (−0.1° C. for 1 h), Oct. 23/24 (−0.1° C. for 1 h), 2007 and Oct. 24/25, 2007 (0° C. for 1 h, −1.1° C. for 1.5 h and 0° C. for 1 h). 47 days after sowing (=DAP; days after planting), the number emerged plants and their height was assessed. 50 DAP, the extent of dead tissue was assessed. The results are compiled as mean values in table 11 below.

For `CO/C=C(/C(=O)OC)c1ccccc1Oc1cc(Oc2ccccc2C#N)ncn1` [azoxystrobin], the Dead plants in the assay with corn plants [1] is 31%; in the assay with cotton plants (seed treatment 19 g a.s./100 kg seed) it was 24%.
For `COC(=O)N(OC)c1ccccc1COc1ccn(-c2ccc(Cl)cc2)n1` [pyraclostrobin], the Emergence with corn plants [2] (9 DAP) was 81%; in the assay with corn plants [2] (10 DAP), 97%; in the assay with corn plants [2] (29 DAP), 100%; with sugar beet plants [4] (13 DAP), 23%; with sugar beet plants [4] (15 DAP), 45%; with sugar beet plants [4] (16 DAP) it was 57%. Further, the Emergence is recorded as 73% in the assay on sugar beet plants [4] (17 DAP) and 90% in the assay on sugar beet plants [4] (20 DAP). In addition, the Root length with corn plants [3] amounted to 13.3 cm. Further, the Stem length in the assay on corn plants [3] is listed as 11.2 cm. In addition, the Dead plants in the assay on corn plants [1] stood at 36%; with sugar beet plants [5] (3 h at −5° C. in BBCH growth stage 10, counted three days after freeze exposure), 12%; in the assay on sugar beet plants [5] (3 h at −5° C. in BBCH growth stage 11, counted three days after freeze exposure), 17%; with soybean plants, 18%; in the assay on spring wheat plants it was 18%; with cotton plants (seed treatment 20 g a.s./100 kg seed) it was 17%. Also, the Dead plants amounted to 40% in the assay on canola plants and 29% in the assay with corn plants [6]. The Plants with injury in the assay with corn plants [6] is given as 35%. Besides, the “Plants with no injury” value with corn plants [6] is listed as 34%. The “No. of plants emerged” value in the assay with corn plants [7] (47 DAP) turned out to be 19. In addition, in the assay on corn plants [7] (47 DAP), the Plant height was found to be 1.25 inches. In addition, the Dead tissue in the assay with corn plants [7] (50 DAP) is 63%.
`CON=C(C(=O)OC)c1ccccc1CON=C(C)c1cccc(C(F)(F)F)c1` [trifloxystrobin] yielded a Dead plants in the assay on canola plants of 42%.
